Measurements taken from patent publication US20120088737A2, “NOVEL ACYL GUANIDINE DERIVATIVES” (AJINOMOTO CO., INC, priority 2009, published 2012).

How the values were obtained:
human NHE3 [1] = molecular target: T1, human NHE3 (Homo sapiens, UniProt P48764); assay: Measurements of NHE3 inhibitory activities (OK26 cells); assay type: cell-based; conditions: OK26 cells (opossum kidney cells overexpressing human NHE3), measurement time 5 minutes at 37° C.; read-out: hNHE3 IC50
T1 construct: expressed in transfected cells; host or cells: OK26 cells (opossum kidney OK cells); OK26 ND sublines with opNHE1 reduced by 90% for A3
T1 sequence (P48764 26-834): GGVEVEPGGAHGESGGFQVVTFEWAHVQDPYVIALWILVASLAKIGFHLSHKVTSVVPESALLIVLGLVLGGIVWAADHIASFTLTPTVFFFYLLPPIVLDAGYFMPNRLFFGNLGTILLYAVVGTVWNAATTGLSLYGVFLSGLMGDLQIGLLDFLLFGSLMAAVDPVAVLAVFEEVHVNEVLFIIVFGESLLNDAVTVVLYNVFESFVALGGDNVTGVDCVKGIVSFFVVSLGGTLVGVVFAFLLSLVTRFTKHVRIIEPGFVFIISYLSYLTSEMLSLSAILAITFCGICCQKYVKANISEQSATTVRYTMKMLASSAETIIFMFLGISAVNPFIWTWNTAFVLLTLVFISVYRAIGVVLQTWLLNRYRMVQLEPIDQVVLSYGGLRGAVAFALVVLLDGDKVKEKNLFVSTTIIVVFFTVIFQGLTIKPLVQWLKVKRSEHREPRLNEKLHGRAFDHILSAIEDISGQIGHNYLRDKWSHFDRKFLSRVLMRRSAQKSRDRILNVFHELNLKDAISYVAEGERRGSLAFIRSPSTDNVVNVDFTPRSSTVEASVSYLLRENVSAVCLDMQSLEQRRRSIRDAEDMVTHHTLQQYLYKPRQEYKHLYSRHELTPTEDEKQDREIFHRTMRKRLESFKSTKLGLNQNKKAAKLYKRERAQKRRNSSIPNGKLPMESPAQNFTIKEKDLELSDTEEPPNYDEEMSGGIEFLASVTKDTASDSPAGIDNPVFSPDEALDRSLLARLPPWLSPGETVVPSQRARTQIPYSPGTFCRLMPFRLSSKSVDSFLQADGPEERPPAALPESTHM
Experimental: (§1) HLF cells (Human hepatoma cell line) were used as cells for the test. After 1×10^4 cells/well were seeded to a 96-well plate and cultured for 3 days, they were cultured overnight under a serum-free medium. Then, the cells were incubated in a stain solution of Tetramethylammonium (TMA) Buffer (130 mM TMA-C1, 5 mM KCl, 2 mM CaCl2, 1 mM MgSO2, 25 mM glucose, 20 mM HEPES; pH 7.4) containing 40 mM NH4Cl and 1 μg/mL pH-sensitive fluorescent indicator BCECF-AM at 37° C. for 40 minutes and then BCECF was introduced into the cells. After the cells were washed once with TMA Buffer and incubated in TMA+40 mM NH4Cl solution at 37° C. for 15 minutes, the solution was removed and 20 μL/well of TMA Buffer and 10 μL/well of each test compound solution prepared with TMA Buffer were added to each well. The measurements were carried out by adding 200 μL/well of Na Buffer (130 mM, NaCl, 5 mM KCl, 2 mM CaCl2, 1 mM MgSO2, 1 mM NaH2PO4, 25 mM glucose, 20 mM HEPES; pH 7.4) or TMA Buffer (for base measurement), immediately placing it on FlexStation (Molecular Device) and then, after 10 minutes, measuring, it the two wavelengths of 505 nm (excitation wavelength)/530 nm (emission wavelength) (measurement value) and 440 nm (excitation wavelength)/530 nm (emission wavelength) (isosbestic point value). A NHE activity was calculated by dividing a measurement value by an isosbestic point value and a NHE1 inhibitory activity was calculated by the following equation. NHE1 inhibitory activity (%)=100×(1−(Measurement value [addition of each compound]−Base [addition of TMA Buffer])/(Control [addition of Na Buffer]−Base [addition of TMA Buffer]))
Pharmacological Test Example 2: Measurements of NHE3 Inhibitory Activities.
OK26 cells (OK (opossum kidney) cells in which human NHE3 genes are overexpressed) were used as cells for the test. The measurements were carried out in the same manner as described in Pharmacological Test Example 1 except that the measurement time was 5 minutes (at 37° C.) to calculate NHE3 inhibitory activities.

[2] = MDCK membrane permeability (trans-well); assay type: in vitro ADME, Canine; conditions: dog, apical pH 6.5 / basal pH 7.4, 37° C.
Experimental: Pharmacological Test Example 4: MDCK Membrane Permeability
1×10^6 MDCK (MADIN-DARBY Canine Kidney) cells were seeded to each well and cultivated on a trans-well for 4 days (Mixed medium; DMEM: F12=1:1). The trans-well consists of a upper chamber into which cells are seeded and a lower chamber which is separated by a porous membrane and each test compound added into the upper chamber penetrates through the porous membrane to be detected in the lower chamber. The trans-well system has been used as a model for cell membrane permeability.
Buffer solution (pH 6.5) (138 mM NaCl, 2.7 mM KCl, 25 mM D-Glucose, 20 mM MES, 1.25 mM CaCl2, 0.5 mM MgCl2; pH was adjusted with KOH) was added into the upper chamber (Apical side) while Buffer solution (pH 7.4) (138 mM NaCl, 2.7 mM KCl, 25 mM D-Glucose, 20 mM HEPES, 1.25 mM CaCl2, 0.5 mM MgCl2; pH was adjusted with KOH) was added into the lower chamber (basal side). After it was pre-incubated at 37° C. for 20 minutes, 50 μM of each test compound was added thereto and then reacted at 37° C. for 1 hour. The solutions in the upper and lower chambers were collected and the concentrations of each test compound were determined by LC/MS to calculate membrane permeability values (Pm values) by the following equation. Pm[cm/sec]=(Concentration of each test compound in the basal side×1.5 mL)/(3600 sec×1.12 cm^2×Initial concentration of the added compound)

[3] = system: renal dysfunction model rats; assay: Continuous administration test in renal dysfunction model rats; assay type: in vivo, Wistar rats
Experimental: Pharmacological Test Example 5: Continuous Administration Test in Renal Dysfunction Model Rats
After unilateral nephrectomy was performed on 7-week-old Wistar rats and the rats were habituated for 1 week, they were divided into 4 groups based on their body weights, Normal group, Vehicle group, 20 mg/kg of the compound of Example 7-administered group and 50 mg/kg of the compound of Example 7-administered group were assigned to 5 rats, respectively. After the rats were habituated in metabolic cages for 4 days, the test compound the compound of Example 7) dissolved in 0.5% methylcellulose solution was administered via gavage simultaneously with intraperitoneal administration of oleic acid-containing bovine serum albumin (OA-BSA) at a dose of 2 g/animal once daily for 4 days. Vehicles (0.5% methylcellulose solution) were administered to Normal group and Vehicle group instead of the test compound (the compound of Example 7). In addition, no oleic acid-containing bovine serum albumin was administered to Normal group and only unilateral nephrectomy was performed on the Normal group rats. Urine samples were collected from each rat on the last administration day to the next day of the last administration, and blood sampling and autopsy were conducted on the same day.

NHE1 = molecular target: T2, NHE1 (Homo sapiens, UniProt P19634); assay: Measurements of NHE1 inhibitory activities (HLF cells, BCECF pH recovery); assay type: cell-based; conditions: HLF cells (human hepatoma cell line), measured after 10 minutes; read-out: hNHE1 IC50
T2 construct: HLF cells (Human hepatoma cell line) were used as cells for the test; endogenous in cells; host or cells: HLF cells (human hepatoma cell line)
Experimental: Pharmacological Test Example 1: Measurements of NHE1 Inhibitory Activities
as §1

human NHE3 [4] = molecular target: T1, human NHE3; assay: Improved version of measurements of NHE3 inhibitory activities (OK26 ND cell lines); assay type: cell-based; conditions: OK26 ND cell lines (opNHE1 expression reduced by 90%), measurement time 8 minutes at 26° C.; read-out: hNHE3 IC50
Experimental: Pharmacological Test Example 3: Improved Version of Measurements of NHE3 Inhibitory Activities
OK26 cells express endogeneous NHE1 (opNHE1). In order to evaluate NHE3 inhibitory activities more precisely, OK26 ND cell lines in which the expression level of opNHE1 is reduced by 90% were established. Measurements of NEE inhibitory activities were carried out by using the established cell lines in the same manner as described in Pharmacological Test Example 1 except that the measurement time was 8 minutes (at 26° C.) to calculate more precise NHE3 inhibitory activities.

[5] = test compound-administered groups (20 and 50 mg/kg), 4 days, FIG. 2

T2 sequence (P19634 whole entry): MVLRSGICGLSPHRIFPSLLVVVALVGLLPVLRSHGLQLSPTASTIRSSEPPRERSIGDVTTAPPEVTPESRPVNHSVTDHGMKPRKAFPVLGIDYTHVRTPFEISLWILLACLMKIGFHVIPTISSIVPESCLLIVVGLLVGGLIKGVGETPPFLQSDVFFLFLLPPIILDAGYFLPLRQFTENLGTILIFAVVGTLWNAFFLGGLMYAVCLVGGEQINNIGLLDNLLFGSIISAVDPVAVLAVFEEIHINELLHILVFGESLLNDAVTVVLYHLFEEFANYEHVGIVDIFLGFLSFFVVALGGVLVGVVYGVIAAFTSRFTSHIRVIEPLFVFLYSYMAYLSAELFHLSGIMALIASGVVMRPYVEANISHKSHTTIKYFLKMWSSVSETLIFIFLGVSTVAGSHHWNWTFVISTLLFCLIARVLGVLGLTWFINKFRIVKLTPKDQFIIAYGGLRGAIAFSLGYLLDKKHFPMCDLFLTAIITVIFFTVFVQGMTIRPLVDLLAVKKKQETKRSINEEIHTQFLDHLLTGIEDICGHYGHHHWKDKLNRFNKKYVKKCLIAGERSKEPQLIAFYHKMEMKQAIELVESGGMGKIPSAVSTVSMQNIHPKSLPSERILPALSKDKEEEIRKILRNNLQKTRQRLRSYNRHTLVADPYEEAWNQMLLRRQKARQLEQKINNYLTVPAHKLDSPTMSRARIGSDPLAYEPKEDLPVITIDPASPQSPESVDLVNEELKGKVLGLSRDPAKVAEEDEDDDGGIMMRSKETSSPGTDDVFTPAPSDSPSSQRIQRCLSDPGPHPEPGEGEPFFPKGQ

Row | IC50 (human NHE3 [1]) [nM] | Papp A→B at 1 h, 50 μM [2] [×10⁻⁶ cm/s] | IC50 (NHE1) [nM] | IC50 (human NHE3 [4]) [nM] | SMILES | tubular damages (beta 2-microglobulin, marker for tubular damage) ([3]; 20 mg/kg and 50 mg/kg via gavage once daily for 4 days, OA-BSA i.p., unilaterally nephrectomized rats, FIG. 1) | tubular damage scores ([3]; test compound administered groups (20 and 50 mg/kg), 4 days, FIG. 3) | appearances of urinary cast (renal pathological images) [3, 5] | dilation of proximal renal tubules (renal pathological images) [3, 5]
1 | > 10000 | 2 |  |  | COC(=O)c1ccc(-c2ccccc2/C=C(\C)C(=O)NC(=N)N)cc1 [Example 7, (E)-2′-(3-guanidino-2-methyl-3-oxo-propenyl)-biphenyl-4-carboxylic acid methyl ester] | Significant improvements in tubular damages | Reductions in tubular damage scores | significant reductions in appearances of urinary cast | improvements in dilation of proximal renal tubules
2 | 610 | 1 | 1200 | 360 | CC(=O)c1cccc(-c2ccccc2/C=C(\C)C(=O)NC(=N)N)c1 [Example 15, N-[(E)-3-(3′-acetyl-biphenyl-2-yl)-2-methyl-acryloyl]guanidine] |  |  |  | 
